# pIC50: −log10 of the molar value.
# Target: T1, mitochondrial sodium-calcium exchanger (mNCE) (Rattus norvegicus, UniProt Q6AXS0)
# T1 construct: from tissue; host or cells: rat whole brain, isolated mitochondria
# T1 sequence (Q6AXS0 27-585): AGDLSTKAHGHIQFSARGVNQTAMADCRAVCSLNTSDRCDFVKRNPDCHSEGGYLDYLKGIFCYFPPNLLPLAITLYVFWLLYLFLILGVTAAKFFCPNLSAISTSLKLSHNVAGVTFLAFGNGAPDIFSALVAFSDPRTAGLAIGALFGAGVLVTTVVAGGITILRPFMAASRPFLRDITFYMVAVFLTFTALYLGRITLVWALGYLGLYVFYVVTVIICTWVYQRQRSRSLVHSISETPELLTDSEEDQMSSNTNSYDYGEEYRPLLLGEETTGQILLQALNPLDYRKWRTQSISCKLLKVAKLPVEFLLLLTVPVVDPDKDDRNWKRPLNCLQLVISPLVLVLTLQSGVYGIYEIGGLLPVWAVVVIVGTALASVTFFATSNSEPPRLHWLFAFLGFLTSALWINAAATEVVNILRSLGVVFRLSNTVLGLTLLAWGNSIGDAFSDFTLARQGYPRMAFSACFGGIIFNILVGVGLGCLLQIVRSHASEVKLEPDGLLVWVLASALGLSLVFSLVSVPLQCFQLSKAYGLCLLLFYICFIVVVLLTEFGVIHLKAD
# Assay: Measurement of the Na-Ca exchanger of rat brain mitochondria (Na-induced Ca-release, Oregon Green fluorescence)
# Type: biochemical
# Conditions: isolated rat brain mitochondria; Ca-efflux rates induced by 20 mM NaCl; rt
# Description: The method is adapted from the method of Rosenthal et al. [J. Cereb. Blood Flow Metab., 7, 752-758 (1987)].
# MSH+: 225 mM mannitol, 75 mM sucrose, 5 mM Hepes, 0.5 mM EDTA, 1 mg/ml of BSA (essentially free fatty acid free); final pH=7.3.
# MSH−: Equal to MSH+, but without EDTA.
# Nagarse solution: 5 mg of nagarse (bacterial protease type XXIV from Sigma, St. Louis, USA, catalogue # P-8038) dissolved in 1 ml of MSH+.
# Digitonin solution: 10% W/V in DMSO.
# The entire procedure is performed on ice. Remove the whole brain from the rat (1 brain=2 g). Add the tissue to cold MSH+in a beaker on ice. Cut the tissue into small pieces using scissors and wash the tissue 2 times with MSH+. Transfer the tissue into a 20 ml Dounce homogenizer and set level to about 9 ml with MSH+. Add 1 ml of freshly made Nagarse solution. Homogenize (6 strokes with a loose and 6 strokes with a tight pestle). […] The protein concentration is determined using the Pierce BCA assay (Pierce, Rockford Ill., USA). […]
# In a typical experiment 96-well microtiter plates (flat bottom) are used. […] Distribute in a 96-well plate 5 μl/well of 2 μM ruthenium red [in 120 mM KCl and 20 mM Tris (pH=7.4)] and the compounds (in DMSO) to be analyzed (1 μl/well). […] Measure the Ca-release induced by the addition of Na by monitoring the Oregon Green fluorescence (485 nm and 538 nm monochromators for excitation and emission, respectively). […]
smiles,measurement,value
"O=C1CS(=O)(=O)C(c2ccccc2Cl)c2cc(Cl)ccc2N1 (stereo not shown) [Example 1, 2-Chloro-9-(2-chlorophenyl)-8,8-dioxo-5,7,8,9-tetrahydro-8lambda*6*-thia-5-aza-benzocyclohepten-6-one]",pIC50,5.42

# — patent US20090281077A1, “Cyclic sulfones useful as mitochondrial sodium-calcium exchangers” (priority 2006, published 2009)
